How the values were obtained:
Format in all cases: cell-based
A549 cell line = test: matrigel modified Boyden chamber cell invasion assay after FHIT silencing; conditions: irbinitinib 10 nM; A549 cells transfected with FHIT siRNA; FIG. 3B
Source text: (§1) FIG. 3: Cell invasion induced by FHIT silencing is HER2-dependent.

HBE-4-E6/E7 cell line = test: as above; conditions: irbinitinib 10 nM; HBE-4-E6/E7 cells transfected with FHIT siRNA; FIG. 3A
Source text: as §1

A549 spheroids = test: collagen I gel invasion by spheroids, timelapse videomicroscopy, after FHIT silencing; conditions: irbinitinib 15 nM, FHIT siRNA, up to 72h, vs FHIT siRNA+DMSO p=0.0001, FIG. 4
Procedure: FIG. 4: Collagen I gel invasion by A549 spheroids induced by FHIT silencing is HER2-dependent. […] A. Representative phase-contrast images of spheroids at T0 and T=72h. B. Time course analysis of mean diameter of spheroids.** p<0.01; *** p<0.001.

## Cc1cc(Nc2ncnc3ccc(NC4=NC(C)(C)CO4)cc23)ccc1Oc1ccn2ncnc2c1 [irbinitinib, N4-(4-([1,2,4]Triazolo[1,5-a]pyridin-7-yloxy)-3-methylphenyl)-N6-(4,4-dimethyl-4,5-dihydrooxazol-2-yl)quinazoline-4,6-diamine]
A549 cell line
  cell invasion induced by FHIT silencing: reduces cell invasion
HBE-4-E6/E7 cell line
  cell invasion induced by FHIT silencing: reduces cell invasion
A549 spheroids
  spheroid invasion (tumor cell dispersion into collagen I matrix, mean spheroid diameter) induced by FHIT silencing: reduces spheroid invasion
